Tests used:
[1] = biological target: T1, HCV NS5B RdRp genotype 1b (Hepatitis C virus genotype 1b, UniProt Q9WMX2); assay: Modified HCV NS5B RdRp enzyme assay (with preincubation); format: biochemical
T1 construct: The protein was expressed with an 18 amino acid C-terminal truncation to enhance the solubility; made in house; host or cells: E. coli BL21 (DE3), pET21a
Procedure, shortened: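 Seven-point IC50s were derived from SPA-based ³H-UTP incorporation after 4 h at 30 °C (Hepes pH 7.5, 2% DMSO). Compound was first mixed with 14 nM Δ18 NS5B genotype 1b enzyme. Then 0.2 nM polyA, 0.29 μM UTP and bead-bound oligo-dT12 (20 nM) were added.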

HCV replicon = HCV replicon FRET assay; format: cell-based; settings: Hepatitis C virus; FRET assay; read-out: EC50
Procedure, shortened: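 Replicon cells (± Renilla luciferase reporter) incubated with titrated compound at 37 °C; NS3 protease activity read by FRET peptide cleavage (20 uM EDANS/DABCYL substrate, 340/490 nm kinetic) or luciferase.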

[2] = modified method (with preincubation)

T1 sequence (Q9WMX2 2420-2992): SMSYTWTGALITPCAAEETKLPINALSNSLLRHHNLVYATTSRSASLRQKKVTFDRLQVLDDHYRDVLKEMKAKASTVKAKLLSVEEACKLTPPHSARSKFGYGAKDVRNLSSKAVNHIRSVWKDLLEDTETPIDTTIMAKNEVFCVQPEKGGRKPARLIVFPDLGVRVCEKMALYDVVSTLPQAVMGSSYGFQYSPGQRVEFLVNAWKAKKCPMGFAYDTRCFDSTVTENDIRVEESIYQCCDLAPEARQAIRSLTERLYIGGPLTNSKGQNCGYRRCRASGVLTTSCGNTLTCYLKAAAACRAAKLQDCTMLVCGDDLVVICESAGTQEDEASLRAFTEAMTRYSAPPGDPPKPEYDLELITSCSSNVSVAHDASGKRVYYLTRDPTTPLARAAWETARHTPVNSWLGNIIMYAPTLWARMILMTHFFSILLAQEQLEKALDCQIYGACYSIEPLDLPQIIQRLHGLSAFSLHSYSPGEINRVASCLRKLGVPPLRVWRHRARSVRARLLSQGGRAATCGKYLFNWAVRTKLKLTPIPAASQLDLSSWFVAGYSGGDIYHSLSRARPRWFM

Row | Compound | IC50 ([1]; preincubation protocol) | EC50 (HCV replicon) | IC50 [1, 2]
1 | C[C@@H]1CN(C(=O)C2=Cc3ccccc3-c3c(C4CCCCC4)c4ccc(C(=O)NC5(C(=O)Nc6nccs6)CCCC5)cc4n3C2)C[C@H](C)O1 | 0.01 to 1 µM | 0.05 to 1 µM | –
2 | O=C(O)c1ccc2c(C3CCCCC3)c3n(c2c1)C(C(=O)N1CCOCC1)CCc1ccccc1-3 (centres unmarked) | > 12.5 µM | > 3.3 µM | –
3 | COc1ccc2c(c1)C=C(C(=O)N(C)CCO)Cn1c-2c(C2CCCCC2)c2ccc(C(=O)NS(=O)(=O)N(C)C)cc21 | < 0.02 µM | 0.05 to 1 µM | –
4 | COc1ccc2c(c1)C=C(C(=O)N(CCO)CCO)Cn1c-2c(C2CCCCC2)c2ccc(C(=O)NS(=O)(=O)N(C)C)cc21 | < 0.02 µM | 0.05 to 1 µM | –
5 | C[C@@H]1CN(C(=O)C2=Cc3ccccc3-c3c(C4CCCCC4)c4ccc(C(=O)NC5(C(=O)O)CCCC5)cc4n3C2)C[C@H](C)O1 | 0.01 to 1 µM | 0.05 to 1 µM | –
6 | COc1ccc2c(c1)CC(C(=O)N1C[C@@H](C)N[C@@H](C)C1)Cn1c-2c(C2CCCCC2)c2ccc(C(=O)NS(=O)(=O)N(C)C)cc21 (some centres unmarked) | 0.01 to 1 µM | 0.05 to 1 µM | –
7 | C[C@@H]1CN(C(=O)C2=Cc3cc(F)ccc3-c3c(C4CCCCC4)c4ccc(C(=O)NS(=O)(=O)N(C)C)cc4n3C2)C[C@H](C)N1 | 0.01 to 1 µM | 0.05 to 1 µM | –
8 | COc1ccc2c(c1)CC(C(=O)N(CCO)CCO)Cn1c-2c(C2CCCCC2)c2ccc(C(=O)NS(=O)(=O)N(C)C)cc21 (centres unmarked) | 0.01 to 1 µM | 0.05 to 1 µM | –
9 | COc1ccc2c(c1)CC(C(=O)N(C)CCO)Cn1c-2c(C2CCCCC2)c2ccc(C(=O)NS(=O)(=O)N(C)C)cc21 (centres unmarked) | 0.01 to 1 µM | 0.05 to 1 µM | –
10 | CNS(=O)(=O)NC(=O)c1ccc2c(C3CCCCC3)c3n(c2c1)CC(C(=O)N1C[C@@H](C)O[C@@H](C)C1)=Cc1cc(F)ccc1-3 | 0.01 to 1 µM | 0.05 to 1 µM | –
11 | CNCCNC(=O)c1ccc2c(C3CCCCC3)c3n(c2c1)CC(C(=O)N1C[C@@H](C)O[C@@H](C)C1)=Cc1ccccc1-3 | 0.01 to 1 µM | 0.05 to 1 µM | –
12 | CNS(=O)(=O)NC(=O)c1ccc2c(C3CCCCC3)c3n(c2c1)CC(C(=O)N1C[C@@H](C)O[C@@H](C)C1)Cc1ccccc1-3 (some centres unmarked) | 0.01 to 1 µM | 0.05 to 1 µM | –
13 | COC(=O)C1=Cc2c(OC)cccc2-c2c(C3CCCCC3)c3ccc(C(=O)OC)cc3n2C1 | > 4 µM | > 3.3 µM | –
14 | COC(=O)c1ccc2c(C3CCCCC3)c3n(c2c1)CC(C(=O)O)=Cc1c(OC)cccc1-3 | 1 to 10 µM | 1 to 10 µM | –
15 | COC(=O)c1ccc2c(C3CCCCC3)c3n(c2c1)CC(C(=O)N1C[C@@H](C)O[C@@H](C)C1)=Cc1cc(OC)ncc1-3 | > 1 µM | > 1 µM | –
16 | COc1cccc2c1C=C(C(=O)N1C[C@@H](C)O[C@@H](C)C1)Cn1c-2c(C2CCCCC2)c2ccc(C(=O)O)cc21 | 0.01 to 1 µM | 0.05 to 1 µM | –
17 | COc1cccc2c1C=C(C(=O)N1C[C@@H](C)O[C@@H](C)C1)Cn1c-2c(C2CCCCC2)c2ccc(C(=O)NS(=O)(=O)N(C)C)cc21 | 0.01 to 1 µM | 0.05 to 1 µM | –
18 | COC(=O)c1ccc2c(C3CCCCC3)c3n(c2c1)C(O)c1cc(OC)ccc1-3 (centres unmarked) | > 1 µM | > 0.1 µM | –
19 | COC(=O)c1ccc2c(C3CCCCC3)c3n(c2c1)C(O)c1cc(OCc2ccccc2)ccc1-3 (centres unmarked) | 1 to 10 µM | > 0.1 µM | –
20 | COC(=O)/C=C/c1ccc(NC(=O)C2(NC(=O)c3ccc4c(C5CCCCC5)c5n(c4c3)CC(=O)Nc3cccnc3-5)CCCC2)cc1 [drawing 159] | – | < 0.1 µM | 0.02 to 1 µM
21 | O=C(O)/C=C/c1ccc(NC(=O)C2(NC(=O)c3ccc4c(C5CCCCC5)c5n(c4c3)CCCc3ccccc3-5)CCNCC2)cc1 [drawing 160] | – | 0.01 to 1 µM | 0.02 to 1 µM
22 | COC(=O)c1ccc2c(C3CCCCC3)c3n(c2c1)CC(C(=O)OCc1ccccc1)=Cc1ccccc1-3 [drawing 223] | – | 1 to 10 µM | > 1 µM
23 | O=C(NS(=O)(=O)C1CC1)c1ccc2c(C3CCCCC3)c3n(c2c1)CC(C(=O)N1CCOCC1)Cc1ccccc1-3 (centres unmarked) [drawing 287] | – | 0.01 to 1 µM | 0.02 to 1 µM
24 | CS(=O)(=O)NC(=O)c1ccc2c(C3CCCCC3)c3n(c2c1)CC(C(=O)N1CCOCC1)Cc1ccccc1-3 (centres unmarked) [drawing 303] | – | 0.01 to 1 µM | 0.02 to 1 µM
25 | O=C(O)c1ccc2c(C3CCCCC3)c3n(c2c1)CC(C(=O)O)Cc1ccccc1-3 (centres unmarked) [drawing 305] | – | > 10 µM | 0.02 to 1 µM
